Results taken from patent publication US20250353891A1 (MEDIMMUNE LIMITED, priority 2022, published 2025).
Read-outs that look alike come from different tables or passages of the source. Starred links: 1 amine or outer side, 2 acyl side, 3 side chain; linkers in the order of their positions; H or OH if unused. Non-standard residues stand in square brackets, D forms with d. Residues, ends and D or L forms follow the SMILES beside them. Groups on a side chain read outwards from the residue. *: point of attachment. C20 diacid = O=C(O)CCCCCCCCCCCCCCCCCCC(=O)*; C18 diacid = O=C(O)CCCCCCCCCCCCCCCCC(=O)*; γGlu = O=C(O)[C@H](CCC(=O)[*:2])N[*:1]; αMeF = C[C@](N)(Cc1ccccc1)C(=O)O; AEEA = NCCOCCOCC(=O)O; Aib = CC(C)(N)C(=O)O

How the values were obtained:
[1] = biological target: human glucagon receptor (hGCGR) (Homo sapiens, UniProt P47871); assay: cAMP production (HTRF) in CHO cells expressing hGCGR; format: cell-based; set-up: expressed in transfected cells; settings: Table 6, peptides modified at position 17, cAMP in CHO hGCGR cells, geometric mean
Sequence of human glucagon receptor (hGCGR) (P47871 26-477): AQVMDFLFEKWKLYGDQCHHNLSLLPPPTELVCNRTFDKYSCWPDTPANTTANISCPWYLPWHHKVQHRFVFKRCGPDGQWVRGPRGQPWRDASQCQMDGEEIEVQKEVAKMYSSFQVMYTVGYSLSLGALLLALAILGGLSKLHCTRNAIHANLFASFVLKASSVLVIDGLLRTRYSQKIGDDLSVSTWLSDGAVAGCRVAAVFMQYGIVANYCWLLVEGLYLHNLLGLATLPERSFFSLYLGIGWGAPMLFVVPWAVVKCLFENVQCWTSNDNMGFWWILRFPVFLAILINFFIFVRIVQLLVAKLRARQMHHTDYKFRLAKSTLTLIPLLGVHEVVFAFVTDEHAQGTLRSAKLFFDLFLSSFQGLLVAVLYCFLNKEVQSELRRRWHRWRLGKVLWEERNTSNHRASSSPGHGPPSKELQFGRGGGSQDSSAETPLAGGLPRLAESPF
Summary of the method: (§1)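 Cells were resuspended in assay buffer at batch-optimized density, typically 1×10^5 cells/mL for hGLP-1R and 2×10^5 cells/mL for hGCGR. After 30 min incubation at room temperature with compound, cAMP was measured by two-step HTRF. EC50 values came from 4-parameter logistic fits of % Delta F.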

[2] = biological target: human GLP-1 receptor (hGLP-1R) (Homo sapiens, UniProt P43220); assay: cAMP production (HTRF) in CHO cells expressing hGLP-1R; format: cell-based; set-up: expressed in transfected cells; settings: for EC50: Table 6, peptides modified at position 17, cAMP in CHO hGLP-1R cells, geometric mean; for % Relative Potency Ratio: Table 6, % GLP-1R activity relative to GLP-1 / % GlucR activity relative to glucagon
Sequence of human GLP-1 receptor (hGLP-1R) (P43220 24-463): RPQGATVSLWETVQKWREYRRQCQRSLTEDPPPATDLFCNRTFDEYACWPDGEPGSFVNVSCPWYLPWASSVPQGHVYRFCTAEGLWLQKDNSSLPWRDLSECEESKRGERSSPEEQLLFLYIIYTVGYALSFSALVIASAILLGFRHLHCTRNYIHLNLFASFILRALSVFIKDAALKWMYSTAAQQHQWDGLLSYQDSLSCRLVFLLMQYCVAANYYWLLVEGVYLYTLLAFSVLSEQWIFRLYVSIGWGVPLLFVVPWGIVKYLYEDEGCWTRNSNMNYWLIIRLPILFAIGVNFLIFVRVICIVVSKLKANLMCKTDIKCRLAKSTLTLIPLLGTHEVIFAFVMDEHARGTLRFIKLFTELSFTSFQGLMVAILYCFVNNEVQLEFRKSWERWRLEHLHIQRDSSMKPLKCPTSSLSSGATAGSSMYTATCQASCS
Summary of the method: as §1

Row | EC50 ([1]; read-out: hGluc-R EC50) | EC50 ([2]; read-out: hGLP-1R EC50) | % Relative Potency Ratio [2] | SMILES | EC50 ([1]; hGluc-R EC50 (pM)) | EC50 ([2]; hGLP-1R EC50 (pM))
1 | 667 pM | 170 pM | 7.8 | CC(C)C[C@H](NC(=O)[C@H](Cc1c[nH]c2ccccc12)NC(=O)[C@H](CCCNC(=N)N)NC(=O)[C@@H](NC(=O)[C@H](Cc1ccccc1)NC(=O)[C@H](CC(=O)O)NC(=O)[C@H](CCC(N)=O)NC(=O)[C@H](C)NC(=O)[C@H](CCCNC(=N)N)NC(=O)[C@H](CCCCNC(=O)COCCOCCNC(=O)COCCOCCNC(=O)CC[C@H](NC(=O)CC[C@H](NC(=O)CCCCCCCCCCCCCCCCCCC(=O)O)C(=O)O)C(=O)O)NC(=O)[C@H](CCCNC(=N)N)NC(=O)[C@H](CC(=O)O)NC(=O)[C@H](CC(C)C)NC(=O)[C@](C)(Cc1ccccc1)NC(=O)[C@H](CCCCN)NC(=O)[C@H](CO)NC(=O)[C@@H](NC(=O)[C@H](CC(=O)O)NC(=O)[C@H](CO)NC(=O)[C@@H](NC(=O)[C@H](Cc1ccccc1)NC(=O)[C@@H](NC(=O)CNC(=O)[C@H](CCC(N)=O)NC(=O)C(C)(C)NC(=O)[C@@H](N)Cc1c[nH]cn1)[C@@H](C)O)[C@@H](C)O)C(C)C)C(C)C)C(=O)N[C@H](C(=O)NC(C)(C)C(=O)N[C@@H](CCC(=O)O)C(N)=O)C(C)C [Peptide 447] (H-H[Aib]QGTFTSDVSK[αMeF]LDRK([AEEA-AEEA-γGlu-γGlu-C20 diacid])RAQDFVRWLV[Aib]E-NH2; N-terminus assumed) | – | –
2 | 29 pM | 53.1 pM | 1.1 | CC(C)C[C@H](NC(=O)[C@H](Cc1c[nH]c2ccccc12)NC(=O)[C@H](CCCNC(=N)N)NC(=O)[C@@H](NC(=O)[C@H](Cc1ccccc1)NC(=O)[C@H](CC(=O)O)NC(=O)[C@H](CCCNC(=N)N)NC(=O)[C@H](C)NC(=O)[C@H](CCCNC(=N)N)NC(=O)[C@H](CCCCNC(=O)COCCOCCNC(=O)COCCOCCNC(=O)CC[C@H](NC(=O)CC[C@H](NC(=O)CCCCCCCCCCCCCCCCC(=O)O)C(=O)O)C(=O)O)NC(=O)[C@H](CCCCN)NC(=O)[C@H](CC(=O)O)NC(=O)[C@H](CC(C)C)NC(=O)[C@](C)(Cc1ccccc1)NC(=O)[C@H](CCCCN)NC(=O)[C@H](CO)NC(=O)[C@@H](NC(=O)[C@H](CC(=O)O)NC(=O)[C@H](CO)NC(=O)[C@@H](NC(=O)[C@H](Cc1ccccc1)NC(=O)[C@@H](NC(=O)CNC(=O)[C@H](CCC(N)=O)NC(=O)C(C)(C)NC(=O)[C@@H](N)Cc1c[nH]cn1)[C@@H](C)O)[C@@H](C)O)C(C)C)C(C)C)C(=O)N[C@@H](CC(C)C)C(=O)NC(C)(C)C(=O)N[C@@H](CCC(=O)O)C(=O)O [Peptide 448] (H-H[Aib]QGTFTSDVSK[αMeF]LDKK([AEEA-AEEA-γGlu-γGlu-C18 diacid])RARDFVRWLL[Aib]E-OH) | – | –
3 | 242 pM | 207 pM | 2.3 | CC(C)C[C@H](NC(=O)[C@H](Cc1c[nH]c2ccccc12)NC(=O)[C@H](CCC(N)=O)NC(=O)[C@@H](NC(=O)[C@H](Cc1ccccc1)NC(=O)[C@H](CC(=O)O)NC(=O)[C@H](CCCNC(=N)N)NC(=O)[C@H](C)NC(=O)[C@H](CCCNC(=N)N)NC(=O)[C@H](CCCCNC(=O)COCCOCCNC(=O)COCCOCCNC(=O)CC[C@H](NC(=O)CC[C@H](NC(=O)CCCCCCCCCCCCCCCCCCC(=O)O)C(=O)O)C(=O)O)NC(=O)[C@@H](NC(=O)[C@H](CC(=O)O)NC(=O)[C@H](CC(C)C)NC(=O)[C@](C)(Cc1ccccc1)NC(=O)[C@H](CCCCN)NC(=O)[C@H](CO)NC(=O)[C@@H](NC(=O)[C@H](CC(=O)O)NC(=O)[C@H](CO)NC(=O)[C@@H](NC(=O)[C@H](Cc1ccccc1)NC(=O)[C@@H](NC(=O)CNC(=O)[C@H](CCC(N)=O)NC(=O)C(C)(C)NC(=O)[C@@H](N)Cc1c[nH]cn1)[C@@H](C)O)[C@@H](C)O)C(C)C)[C@@H](C)O)C(C)C)C(=O)N[C@@H](CC(C)C)C(=O)N[C@@H](CCC(=O)O)C(=O)NC(C)(C)C(=O)NCC(=O)O [Peptide 449] | – | –
4 | 57.8 pM | 57.3 pM | 2.0 | CC(C)C[C@H](NC(=O)[C@H](Cc1c[nH]c2ccccc12)NC(=O)[C@H](CCCNC(=N)N)NC(=O)[C@@H](NC(=O)[C@H](Cc1ccccc1)NC(=O)[C@H](CC(=O)O)NC(=O)[C@H](CCC(N)=O)NC(=O)[C@H](C)NC(=O)[C@H](CCCNC(=N)N)NC(=O)[C@H](CCCCNC(=O)COCCOCCNC(=O)COCCOCCNC(=O)CC[C@H](NC(=O)CC[C@H](NC(=O)CCCCCCCCCCCCCCCCC(=O)O)C(=O)O)C(=O)O)NC(=O)[C@H](CCCCN)NC(=O)[C@H](CC(=O)O)NC(=O)[C@H](CC(C)C)NC(=O)[C@](C)(Cc1ccccc1)NC(=O)[C@H](CCCCN)NC(=O)[C@H](CO)NC(=O)[C@@H](NC(=O)[C@H](CC(=O)O)NC(=O)[C@H](CO)NC(=O)[C@@H](NC(=O)[C@H](Cc1ccccc1)NC(=O)[C@@H](NC(=O)CNC(=O)[C@H](CCC(N)=O)NC(=O)C(C)(C)NC(=O)[C@@H](N)Cc1c[nH]cn1)[C@@H](C)O)[C@@H](C)O)C(C)C)C(C)C)C(=O)N[C@@H](CC(C)C)C(=O)N[C@@H](CCC(=O)O)C(=O)NC(C)(C)C(=O)NCC(=O)O [Peptide 450] (H-H[Aib]QGTFTSDVSK[αMeF]LDKK([AEEA-AEEA-γGlu-γGlu-C18 diacid])RAQDFVRWLLE[Aib]G-OH; N-terminus assumed) | – | –

Continued, compound first:

Row | SMILES | EC50 ([1]; read-out: hGluc-R EC50) | EC50 ([2]; read-out: hGLP-1R EC50) | % Relative Potency Ratio [2] | EC50 ([1]; hGluc-R EC50 (pM)) | EC50 ([2]; hGLP-1R EC50 (pM))
5 | CC(C)C[C@H](NC(=O)[C@H](Cc1c[nH]c2ccccc12)NC(=O)[C@H](CCC(N)=O)NC(=O)[C@@H](NC(=O)[C@H](Cc1ccccc1)NC(=O)[C@H](CC(=O)O)NC(=O)[C@H](CCCNC(=N)N)NC(=O)[C@H](C)NC(=O)[C@H](CCCNC(=N)N)NC(=O)[C@H](CCCCNC(=O)COCCOCCNC(=O)COCCOCCNC(=O)CC[C@H](NC(=O)CCCCCCCCCCCCCCCCC(=O)O)C(=O)O)NC(=O)[C@@H](NC(=O)[C@H](CCC(=O)O)NC(=O)[C@H](CC(C)C)NC(=O)[C@](C)(Cc1ccccc1)NC(=O)[C@H](CCCCN)NC(=O)[C@H](CO)NC(=O)[C@@H](NC(=O)[C@H](CC(=O)O)NC(=O)[C@H](CO)NC(=O)[C@@H](NC(=O)[C@H](Cc1ccccc1)NC(=O)[C@@H](NC(=O)CNC(=O)[C@H](CCC(N)=O)NC(=O)C(C)(C)NC(=O)[C@@H](N)Cc1c[nH]cn1)[C@@H](C)O)[C@@H](C)O)C(C)C)[C@@H](C)O)C(C)C)C(=O)N[C@@H](CC(C)C)C(=O)N[C@@H](CCC(=O)O)C(=O)NC(C)(C)C(=O)NCC(=O)O [Peptide 445] (H-H[Aib]QGTFTSDVSK[αMeF]LETK([AEEA-AEEA-γGlu-C18 diacid])RARDFVQWLLE[Aib]G-OH) | – | – | – | 684 pM | 33 pM
6 | CC(C)C[C@H](NC(=O)[C@H](Cc1c[nH]c2ccccc12)NC(=O)[C@H](CCCNC(=N)N)NC(=O)[C@@H](NC(=O)[C@H](Cc1ccccc1)NC(=O)[C@H](CC(=O)O)NC(=O)[C@H](CCC(N)=O)NC(=O)[C@H](C)NC(=O)[C@H](CCCNC(=N)N)NC(=O)[C@H](CCCCNC(=O)COCCOCCNC(=O)COCCOCCNC(=O)CC[C@H](NC(=O)CC[C@H](NC(=O)CCCCCCCCCCCCCCCCC(=O)O)C(=O)O)C(=O)O)NC(=O)[C@H](CCCNC(=N)N)NC(=O)[C@H](CC(=O)O)NC(=O)[C@H](CC(C)C)NC(=O)[C@](C)(Cc1ccccc1)NC(=O)[C@H](CCCCN)NC(=O)[C@H](CO)NC(=O)[C@@H](NC(=O)[C@H](CC(=O)O)NC(=O)[C@H](CO)NC(=O)[C@@H](NC(=O)[C@H](Cc1ccccc1)NC(=O)[C@@H](NC(=O)CNC(=O)[C@H](CCC(N)=O)NC(=O)C(C)(C)NC(=O)[C@@H](N)Cc1c[nH]cn1)[C@@H](C)O)[C@@H](C)O)C(C)C)C(C)C)C(=O)N[C@H](C(=O)NC(C)(C)C(=O)N[C@@H](CCC(=O)O)C(N)=O)C(C)C [Peptide 446] (H-H[Aib]QGTFTSDVSK[αMeF]LDRK([AEEA-AEEA-γGlu-γGlu-C18 diacid])RAQDFVRWLV[Aib]E-NH2; N-terminus assumed) | 366 pM | 32.9 pM | 22.0 | – | –
7 | CC(C)C[C@H](NC(=O)[C@H](Cc1c[nH]c2ccccc12)NC(=O)[C@H](CC(C)C)NC(=O)[C@@H](NC(=O)[C@H](Cc1ccccc1)NC(=O)[C@H](CC(=O)O)NC(=O)[C@H](CCCNC(=N)N)NC(=O)[C@H](C)NC(=O)[C@H](CCCNC(=N)N)NC(=O)[C@H](CCCCNC(=O)COCCOCCNC(=O)COCCOCCNC(=O)CC[C@H](NC(=O)CCCCCCCCCCCCCCCCCCC(=O)O)C(=O)O)NC(=O)[C@H](CCCCN)NC(=O)[C@H](CC(=O)O)NC(=O)[C@H](CC(C)C)NC(=O)[C@](C)(Cc1ccccc1)NC(=O)[C@H](CCCCN)NC(=O)[C@H](CO)NC(=O)[C@@H](NC(=O)[C@H](CC(=O)O)NC(=O)[C@H](CO)NC(=O)[C@@H](NC(=O)[C@H](Cc1ccccc1)NC(=O)[C@@H](NC(=O)CNC(=O)[C@H](CCC(N)=O)NC(=O)C(C)(C)NC(=O)[C@@H](N)Cc1c[nH]cn1)[C@@H](C)O)[C@@H](C)O)C(C)C)C(C)C)C(=O)N[C@@H](CC(C)C)C(=O)NC(C)(C)C(=O)N[C@@H](CCC(=O)O)C(N)=O [Peptide 451] (H-H[Aib]QGTFTSDVSK[αMeF]LDKK([AEEA-AEEA-γGlu-C20 diacid])RARDFVLWLL[Aib]E-NH2; N-terminus assumed) | 503 pM | 895 pM | 1.1 | – | –
